Test results from patent US7229630B2, “Stabilized formulations of alpha adrenergic receptor antagonists and the uses thereof” (Novalar Pharmaceuticals, Inc., priority 2002, dated 2007).
Where a name gives a salt, the structure may show the parent alone.

Test system: healthy adult volunteers
Assay: Reversal of soft-tissue anesthesia after inferior alveolar nerve block, proof-of-principle trial
Assay type: in vivo, human
Settings: 0.2 mg in 1.8 ml
Protocol: The objective of this proof-of-principle trial was to evaluate the feasibility of reversing soft-tissue anesthesia by pharmacologically blocking the effects of epinephrine. […] Subjects self-evaluated the return of normal sensation in their lip, chin, tongue, nose, and teeth by palpations at 5-minute intervals starting at 5 minutes before the study drug injection and continuing for approximately 4–5 hours. To avoid biased responding, subjects were told that they could not leave the clinic for 8 hours after the last injection. Responses for soft tissues were categorized as (1) numb (no feeling), (2) feeling of pins and needles, or (3) normal sensation. Responses for teeth were (1) numb (no feeling) or (2) normal sensation. Safety was evaluated through reports of adverse events, measurement of vital signs and two-lead electrocardiograms before, during, and after the injections of anesthetic and study drug, and through pain assessments using visual analog scales.

electrocardiogram: no abnormalities
SMILES: Cc1ccc(N(CC2=NCCN2)c2cccc(O)c2)cc1 [Phentolamine Mesylate, phentolamine mesylate]
duration of anesthesia (60 minutes after 2% lidocaine with 1:100,000 epinephrine, vs saline, each tissue): significantly (p<0.01) reduced
Adverse effects (vs placebo): few and no differences were noted between the active and placebo groups
